# Reference: US12581252B2, “Substituted pyrrolo[3,4-b]pyridines as PI3K-α inhibitors” (Relay Therapeutics, Inc., priority 2020, dated 2026)
# Target: H1047R PIK3CA enzyme (Homo sapiens, UniProt P42336, H1047R)
# Test: ADP-Glo Biochemical PIK3CA Kinase Assay
# Sequence of H1047R PIK3CA enzyme (P42336 whole entry H1047R): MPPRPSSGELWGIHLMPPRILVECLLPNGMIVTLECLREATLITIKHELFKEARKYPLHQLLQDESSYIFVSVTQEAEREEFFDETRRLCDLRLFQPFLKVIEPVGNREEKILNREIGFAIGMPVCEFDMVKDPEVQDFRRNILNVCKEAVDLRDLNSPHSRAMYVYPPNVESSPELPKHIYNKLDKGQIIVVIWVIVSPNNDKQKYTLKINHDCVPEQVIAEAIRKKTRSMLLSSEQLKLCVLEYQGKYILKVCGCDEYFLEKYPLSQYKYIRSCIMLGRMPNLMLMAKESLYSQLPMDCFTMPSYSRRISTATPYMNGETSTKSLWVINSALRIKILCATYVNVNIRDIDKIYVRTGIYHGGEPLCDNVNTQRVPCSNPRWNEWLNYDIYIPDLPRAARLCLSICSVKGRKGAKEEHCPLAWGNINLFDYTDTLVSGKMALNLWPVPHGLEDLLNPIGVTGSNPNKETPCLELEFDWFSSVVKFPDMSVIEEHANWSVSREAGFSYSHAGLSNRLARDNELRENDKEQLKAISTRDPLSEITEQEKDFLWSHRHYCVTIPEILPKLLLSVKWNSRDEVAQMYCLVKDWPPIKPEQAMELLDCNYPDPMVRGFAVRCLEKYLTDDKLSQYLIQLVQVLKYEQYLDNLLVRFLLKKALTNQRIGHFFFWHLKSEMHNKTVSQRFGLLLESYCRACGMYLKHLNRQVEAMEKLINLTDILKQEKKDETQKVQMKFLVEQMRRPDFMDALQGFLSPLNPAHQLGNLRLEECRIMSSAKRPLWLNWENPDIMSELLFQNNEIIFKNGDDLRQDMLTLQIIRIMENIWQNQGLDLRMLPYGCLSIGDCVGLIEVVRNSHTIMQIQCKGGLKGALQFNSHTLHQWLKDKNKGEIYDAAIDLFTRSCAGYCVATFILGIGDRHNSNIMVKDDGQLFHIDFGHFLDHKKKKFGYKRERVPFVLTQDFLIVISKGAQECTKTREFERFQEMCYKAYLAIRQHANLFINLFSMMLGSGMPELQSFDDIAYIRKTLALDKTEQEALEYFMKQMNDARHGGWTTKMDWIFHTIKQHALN
# Sequence of H1047R PIK3CA enzyme (P27986 whole entry partner): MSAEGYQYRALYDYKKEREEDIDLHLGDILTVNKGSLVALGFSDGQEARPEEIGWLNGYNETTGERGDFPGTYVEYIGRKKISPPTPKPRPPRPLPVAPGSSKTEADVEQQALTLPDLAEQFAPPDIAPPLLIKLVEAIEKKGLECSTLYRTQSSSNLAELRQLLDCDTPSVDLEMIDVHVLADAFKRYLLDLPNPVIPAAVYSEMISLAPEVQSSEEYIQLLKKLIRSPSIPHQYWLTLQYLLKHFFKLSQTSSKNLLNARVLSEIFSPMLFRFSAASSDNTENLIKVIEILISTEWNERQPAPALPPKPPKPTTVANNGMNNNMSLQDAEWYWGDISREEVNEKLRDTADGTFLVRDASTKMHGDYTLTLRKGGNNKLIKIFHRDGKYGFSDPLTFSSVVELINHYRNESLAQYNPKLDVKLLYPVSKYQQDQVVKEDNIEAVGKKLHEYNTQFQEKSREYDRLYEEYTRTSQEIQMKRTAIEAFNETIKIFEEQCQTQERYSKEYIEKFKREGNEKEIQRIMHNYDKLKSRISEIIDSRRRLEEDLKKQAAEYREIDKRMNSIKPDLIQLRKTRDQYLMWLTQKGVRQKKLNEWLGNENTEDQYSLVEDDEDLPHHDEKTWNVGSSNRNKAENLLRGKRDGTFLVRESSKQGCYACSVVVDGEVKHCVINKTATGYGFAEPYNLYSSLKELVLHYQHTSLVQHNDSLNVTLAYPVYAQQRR
row,SMILES,IC50
1,O=C(Nc1cc(-c2ccc3ncnn3c2)nc2c1C(C1CCCCO1)NC2=O)c1cc(F)cc(C(F)(F)F)c1 (centres unmarked) [Compound I-1706],10 to 100 µM
2,O=C(Nc1cccc2c1C(C(=O)NC1CCCCC1)NC2=O)c1cc(F)cc(C(F)(F)F)c1 (centres unmarked) [Compound I-2054],10 to 100 µM
3,COc1cccc(-c2cc(NC(=O)c3cc(F)cc(C(F)(F)F)c3)c3c(c2)C(=O)N[C@@H]3c2cc(F)ccc2Cl)n1 (stereo in doubt) [Compound I-1007],1 to 10 µM
4,Cc1ccccc1C1NC(=O)c2cccc(NC(=O)c3cccc(C(F)(F)F)c3F)c21 (centres unmarked) [Compound I-12],10 to 100 µM
5,Cc1cc(=O)[nH]cc1C(=O)Nc1cc(Br)cc2c1C(c1cc(F)ccc1Cl)NC2=O (centres unmarked) [Compound I-1240],10 to 100 µM
6,O=C(Nc1cccc2c1[C@@H](C1CCCCC1)NC2=O)c1cc(F)cc(C(F)(F)F)c1 [Compound I-2053],10 to 100 µM
7,O=C(Nc1cc(Br)cc2c1[C@@H](c1ccc(F)cc1Cl)NC2=O)c1cc(F)cc(C(F)(F)F)c1 [Compound I-754],1 to 10 µM
8,O=C1NC(c2cc(F)ccc2Cl)c2c(NC(=O)C34CC(CO)(C3)C4)cccc21 (centres unmarked) [Compound I-2219],10 to 100 µM
9,N#Cc1nccn1Cc1cc(NC(=O)c2cc(F)cc(C(F)(F)F)c2)c2c(c1)C(=O)NC2c1cc(F)ccc1Cl (centres unmarked) [Compound I-1557],≤ 0.1 µM
10,N#Cc1cnc2ncc(-c3cc(NC(=O)c4cc(F)cc(C(F)(F)F)c4)c4c(c3)C(=O)N[C@H]4c3cc(F)ccc3Cl)cn12 [Compound I-1859],≤ 0.1 µM
11,Cc1ccccc1C1NC(=O)c2cccc(NC(=O)c3c[nH]c(=O)c(Br)c3C)c21 (centres unmarked) [Compound I-504],10 to 100 µM
12,CC(C)(CC(=O)Nc1cc(Br)cc2c1C(c1cc(F)ccc1Cl)NC2=O)C(F)(F)F (centres unmarked) [Compound I-1757],10 to 100 µM
13,O=C1NC(c2cc(F)ccc2Cl)c2c(NC(=O)C3CCCC(C(F)(F)F)N3)cc(-c3ccc4ncnn4c3)cc21 (mixture of isomers) [Compound I-1992],1 to 10 µM
14,O=C(Nc1cc(-c2cccnc2)cc2c1C(c1cc(F)ccc1Cl)NC2=O)c1cc(F)cc(C(F)(F)F)c1 (centres unmarked) [Compound I-888],≤ 0.1 µM
15,O=C1NC(c2cc(F)ccc2Cl)c2c(NC(=O)N3CCC(C(F)(F)F)C3)cc(-c3ccc4ncnn4c3)cc21 (centres unmarked) [Compound I-1903],1 to 10 µM
16,Cc1ccccc1C1NC(=O)c2cccc(NC(=O)c3noc4ccc(Cl)cc34)c21 (centres unmarked) [Compound I-200],1 to 10 µM
17,Cc1ccccc1[C@@H]1NC(=O)c2cccc(NC(=O)c3coc4c(F)cc(F)cc34)c21 [Compound I-98],0.1 to 0.5 µM

row,SMILES,IC50
1,CN1CCN(c2cc(-c3ccc4ncnn4c3)cc3c2C(c2cc(F)ccc2Cl)NC3=O)CC1 (centres unmarked) [Compound I-1952],10 to 100 µM
2,"N#CC1(COc2cc(NC(=O)N3C[C@H](O)c4cc(F)ccc43)c3c(c2)C(=O)N[C@@H]3c2cc(F)ccc2Cl)CC1 (single isomer, unassigned) [Compound I-2554]",0.1 to 0.5 µM
3,O=C1NC(c2cc(F)ccc2Cl)c2c(NC(=O)C3CCc4ccccc4C3)cccc21 (mixture of isomers) [Compound I-2283],10 to 100 µM
4,"O=C(Nc1cc(/N=C2/N[C@@H](C(F)(F)F)CO2)cc2c1[C@@H](c1cc(F)ccc1Cl)NC2=O)c1cc(F)cc(C(F)(F)F)c1 (single isomer, unassigned) [Compound I-2390]",1 to 10 µM
5,Nc1cn2cc(-c3cc(NC(=O)c4cc(F)cc(C(F)(F)F)c4)c4c(c3)C(=O)NC4c3cc(F)ccc3Cl)ccc2n1 (centres unmarked) [Compound I-1411],≤ 0.1 µM
6,O=C(Nc1cc(-c2ccccc2S(=O)(=O)F)cc2c1C(c1cc(F)ccc1Cl)NC2=O)c1cc(F)cc(C(F)(F)F)c1 (centres unmarked) [Compound I-1264],≤ 0.1 µM
7,O=C(Nc1cc(Br)cc2c1C(c1ccccc1C(F)F)NC2=O)c1cc(F)cc(C(F)(F)F)c1 (centres unmarked) [Compound I-792],≤ 0.1 µM
8,"CN1CCN(C(=O)Nc2cc(Br)cc3c2[C@H](c2cc(F)ccc2Cl)NC3=O)CC1(C)C (single isomer, unassigned) [Compound I-2240]",10 to 100 µM
9,"NCCc1cc(NC(=O)N2C[C@H](O)c3cc(F)ccc32)c2c(c1)C(=O)N[C@H]2c1cc(F)ccc1Cl (single isomer, unassigned) [Compound I-2445]",1 to 10 µM
10,Cc1ccccc1[C@H]1NC(=O)c2cc(N)cc(NC(=O)c3cc(F)cc(C(F)(F)F)c3)c21 [Compound I-65],1 to 10 µM
11,O=C(Nc1cc(-c2ccc3ncnn3c2)c(Cl)c2c1C(c1cc(F)ccc1Cl)NC2=O)c1cc(F)cc(C(F)(F)F)c1 (centres unmarked) [Compound I-1667],≤ 0.1 µM
12,O=C(Nc1cc(F)cc2c1C(c1cc(F)ccc1Cl)NC2=O)c1cc(F)cc(C(F)(F)F)c1 (centres unmarked) [Compound I-641],≤ 0.1 µM
13,O=C(Nc1cc(Br)cc2c1C(c1cc(F)ccc1Cl)NC2=O)c1ccc(F)c(OC(F)F)c1 (centres unmarked) [Compound I-558],1 to 10 µM
14,"O=C1N[C@@H](c2ccccc2Cl)c2c(NC(=O)N3C[C@@](O)(C(F)(F)F)c4cc(F)ccc43)cccc21 (single isomer, unassigned) [Compound I-2685]",10 to 100 µM
15,CC1(C)CCc2scc(C(=O)Nc3cccc4c3C(c3cc(F)ccc3Cl)NC4=O)c2C1 (centres unmarked) [Compound I-2235],1 to 10 µM
16,"O=C1N[C@H](c2cc(F)ccc2Cl)c2c(NC(=O)N3C[C@H](O)c4cc(F)ccc43)cc(Cl)cc21 (single isomer, unassigned) [Compound I-2399]",1 to 10 µM

# Results, then the compound that gave them:
row,IC50,SMILES
1,10 to 100 µM,Cc1ccccc1C1NC(=O)c2cccc(NC(=O)c3cnc(OCC(C)C)c(F)c3)c21 (centres unmarked) [Compound I-111]
2,1 to 10 µM,"O=C1N[C@@H](c2cc(F)ccc2Cl)c2c(NC(=O)N3C[C@@](O)(C(F)(F)F)c4cc(F)ccc43)cc(Cl)nc21 (single isomer, unassigned) [Compound I-2705]"
3,1 to 10 µM,"CNc1cc(NC(=O)N2C[C@](O)(C(F)(F)F)c3cc(F)ccc32)c2c(c1C#N)C(=O)N[C@H]2c1cc(F)ccc1Cl (single isomer, unassigned) [Compound I-2608]"
4,≤ 0.1 µM,Cc1ncc(Nc2cc(NC(=O)c3cc(F)cc(C(F)(F)F)c3)c3c(c2)C(=O)NC3c2cc(F)ccc2Cl)cn1 (centres unmarked) [Compound I-1245]
5,0.1 to 0.5 µM,O=C1NC(c2cc(F)ccc2Cl)c2c(NC(=O)n3ncc4ccccc43)cccc21 (centres unmarked) [Compound I-2373]
6,1 to 10 µM,O=C(Nc1cc(Br)cc2c1C(c1cc(F)ccc1Cl)NC2=O)c1cccc(SC(F)(F)F)c1 (centres unmarked) [Compound I-1314]
7,10 to 100 µM,O=C1NC(c2cc(F)ccc2Cl)c2c1cc(-c1ccc3ncnn3c1)cc2C1=CCCNC1 (centres unmarked) [Compound I-1998]
8,≤ 0.1 µM,CN(C)c1ncc(-c2cc(NC(=O)c3cc(F)cc(C(F)(F)F)c3)c3c(c2)C(=O)NC3c2cc(F)ccc2Cl)cn1 (centres unmarked) [Compound I-1222]
9,≤ 0.1 µM,O=C(Nc1cc(C2COC2)cc2c1C(c1cc(F)ccc1Cl)NC2=O)c1cc(F)cc(C(F)(F)F)c1 (centres unmarked) [Compound I-420]
10,0.5 to 1 µM,N#Cc1cc(-c2cc(NC(=O)c3cc(F)cc(C(F)(F)F)c3)c3c(c2)C(=O)N[C@@H]3c2cc(F)ccc2Cl)cn2ncnc12 [Compound I-1880]
11,1 to 10 µM,N#CC(C(=O)Nc1cc(-c2ccc3ncnn3c2)cc2c1C(c1cc(F)ccc1Cl)NC2=O)c1ccccc1 (centres unmarked) [Compound I-1834]
12,1 to 10 µM,O=C1NC(c2ccccc2OC(F)(F)F)c2c(NC(=O)c3csc4ccccc34)ccnc21 (centres unmarked) [Compound I-70]
13,1 to 10 µM,O=C1NC(c2cc(F)ccc2Cl)c2c(Nc3coc4ccccc34)cc(Br)cc21 (centres unmarked) [Compound I-1691]
14,≤ 0.1 µM,CS(=O)(=O)N1CC(c2cc(NC(=O)c3cc(F)cc(C(F)(F)F)c3)c3c(c2)C(=O)NC3c2cc(F)ccc2Cl)C1 (centres unmarked) [Compound I-1228]
15,10 to 100 µM,O=C1NC(c2cc(F)ccc2Cl)c2c(NS(=O)(=O)c3cc(F)cc(C(F)(F)F)c3)cc(Br)cc21 (centres unmarked) [Compound I-1352]
16,1 to 10 µM,"O=C1N[C@@H](c2cc(F)ccc2Cl)c2c(NC(=O)N3C[C@H](C(F)F)c4ccccc43)cccc21 (single isomer, unassigned) [Compound I-2332]"
17,0.1 to 0.5 µM,"Cc1ccccc1C1NC(=O)c2c(Cl)ncc(NC(=O)c3cc(F)cc(C(F)(F)F)c3)c21 (centres unmarked) [Compound I-232, N-[4-Chloro-1-(2-methylphenyl)-3-oxo-1H,2H,3H-pyrrolo[3,4-c]pyridin-7-yl]-3-fluoro-5-(trifluoromethyl)benzamide]"
18,0.1 to 0.5 µM,CC(=O)N1CC(Oc2cc(NC(=O)c3cc(F)cc(C(F)(F)F)c3)c3c(c2)C(=O)NC3c2cc(F)ccc2Cl)C1 (centres unmarked) [Compound I-1251]
19,1 to 10 µM,CC1(C(=O)Nc2cc(Br)cc3c2C(c2cc(F)ccc2Cl)NC3=O)CCCc2ccccc21 (centres unmarked) [Compound I-634]
20,1 to 10 µM,"O=C1N[C@H](c2cc(F)ccc2Cl)c2c(NC(=O)N3C[C@](O)(C(F)(F)F)c4cc(F)ccc43)cc(Cl)nc21 (single isomer, unassigned) [Compound I-2702]"
21,≤ 0.1 µM,O=C(Nc1cc(Nc2cn[nH]c2)cc2c1[C@H](c1cc(F)ccc1Cl)NC2=O)c1cc(F)cc(C(F)(F)F)c1 [Compound I-1258]
22,10 to 100 µM,"O=C(Nc1cccc2c1[C@H]([C@@H]1CCCCCN1)NC2=O)c1cc(F)cc(C(F)(F)F)c1 (single isomer, unassigned) [Compound I-2319]"
23,1 to 10 µM,O=C(Nc1cccc2c1C(c1cc(-c3ccccc3)ccc1Cl)NC2=O)c1cc(F)cc(C(F)(F)F)c1 (centres unmarked) [Compound I-486]
24,≤ 0.1 µM,O=C(Nc1cc(Oc2ncncc2F)cc2c1C(c1cc(F)ccc1Cl)NC2=O)c1cc(F)cc(C(F)(F)F)c1 (centres unmarked) [Compound I-1246]
25,≤ 0.1 µM,Cn1cc(-c2cc(NC(=O)c3cc(F)cc(C(F)(F)F)c3)c3c(c2)C(=O)NC3c2cc(F)ccc2Cl)cnc1=O (centres unmarked) [Compound I-1404]
26,10 to 100 µM,O=C(Nc1cccc2c1C(c1cccc(C3CC3)c1)NC2=O)c1cc(F)cc(C(F)(F)F)c1 (centres unmarked) [Compound I-718]
27,≤ 0.1 µM,CCn1cc(-c2cc(NC(=O)c3cc(F)cc(C(F)(F)F)c3)c3c(n2)C(=O)N[C@H]3c2cc(F)ccc2Cl)ccc1=O [Compound I-615]
28,10 to 100 µM,"Cc1ccccc1C1NC(=O)c2cccc(NC(=O)c3nnc4ccccn34)c21 (centres unmarked) [Compound I-328, N-(1-oxo-3-(o-tolyl)isoindolin-4-yl)-[1,2,4]triazolo[4,3-a]pyridine-3-carboxamide]"
29,1 to 10 µM,O=C1Nc2cccc(NC(=O)c3cc(F)cc(C(F)(F)F)c3)c2C(c2ccccc2Cl)N1 (centres unmarked) [Compound I-1212]
